Experimental findings from patent US20240226115A1, “AXL INHIBITOR COMPOUNDS” (ARCUS BIOSCIENCES, INC., priority 2021, published 2024) are described below.

By IC50 is commonly meant the concentration that inhibits the measured activity by half.

One assay concerns the target T1, Axl (Homo sapiens, UniProt P30530).
T1 sequence (P30530 26-894): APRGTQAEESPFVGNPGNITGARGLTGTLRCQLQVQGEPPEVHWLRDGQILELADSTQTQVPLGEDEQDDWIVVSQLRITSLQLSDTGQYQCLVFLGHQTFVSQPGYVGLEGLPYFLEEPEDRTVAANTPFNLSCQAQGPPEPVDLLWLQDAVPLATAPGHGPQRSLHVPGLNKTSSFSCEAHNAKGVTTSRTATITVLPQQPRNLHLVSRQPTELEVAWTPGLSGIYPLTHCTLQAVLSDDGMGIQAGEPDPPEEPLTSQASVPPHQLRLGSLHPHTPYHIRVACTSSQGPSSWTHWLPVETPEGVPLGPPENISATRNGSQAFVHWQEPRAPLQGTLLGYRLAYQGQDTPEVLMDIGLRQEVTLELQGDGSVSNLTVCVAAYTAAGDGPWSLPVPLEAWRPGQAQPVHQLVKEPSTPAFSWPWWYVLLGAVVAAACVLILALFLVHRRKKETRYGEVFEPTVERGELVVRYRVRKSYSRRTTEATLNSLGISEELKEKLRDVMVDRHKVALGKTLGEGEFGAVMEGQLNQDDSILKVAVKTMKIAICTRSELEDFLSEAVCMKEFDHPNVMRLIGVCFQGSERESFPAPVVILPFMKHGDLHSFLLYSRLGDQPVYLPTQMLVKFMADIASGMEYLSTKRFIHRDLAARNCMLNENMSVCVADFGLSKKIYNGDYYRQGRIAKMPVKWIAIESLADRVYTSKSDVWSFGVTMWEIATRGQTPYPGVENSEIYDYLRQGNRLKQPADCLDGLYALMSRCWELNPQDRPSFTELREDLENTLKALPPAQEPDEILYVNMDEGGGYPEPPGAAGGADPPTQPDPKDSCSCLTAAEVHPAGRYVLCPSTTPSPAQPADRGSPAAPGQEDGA
The assay can be described thus: HTRF KinEASE-TK biochemical potency, AXL. More on the design: purchased Invitrogen. As to conditions: 5 nM AXL, 700 μM ATP. How it is done:
(§1) Purified recombinant human AXL, TYRO3 and MER proteins were purchased from Invitrogen™. 10 nM AXL, 2 nM TYRO3 or MER were incubated with varying concentrations of compounds in 50 mM HEPES, pH 7.4, 10 mM MgCl2, 0.01% BSA, 1 mM DTT and 2% DMSO in a total volume of 20 μl in a 384-well microplate (Corning™ #3640) at RT for 1 h. The AXL, TYRO3 and MER enzymatic reaction was initiated by transferring 10 μl of enzyme and compound mixture into 10 μl of 1.6 μM TK Substrate-biotin (HTRF® KinEASE-TK kit, Cisbio) and 1400 μM ATP pre-incubated in 50 mM HEPES, pH 7.4, 10 mM MgCl2, 0.01% BSA, 1 mM DTT in a 384-well microplate (Corning™ #3640) at RT, giving the final reaction conditions: 5 nM AXL, 1 nM TYRO3 or MER, 800 nM TK Substrate-biotin and 700 μM ATP in 50 mM HEPES, pH 7.4, 10 mM MgCl2, 0.01% BSA, 1 mM DTT and 1% DMSO with varying concentrations of compounds. Following 2 h incubation at RT, the AXL, TYRO3 and MER enzymatic reaction was stopped by transfer of 10 μl of reaction into 10 μl of detection mix (400 nM Streptavidin-XL665, 200-fold dilution TK Antibody-Cryptate and detection buffer, HTRF® KinEASE-TK kit, Cisbio) in a white 384-well microplate (Perkin Elmer, OptiPlate 384). After 1 h incubation at RT, the plate was put into a plate reader (Evision) to read at 665/620 nm (acceptor/donor) for HTRF. The value of the DMSO blank (MIN inhibition=100% activity) was used as a negative control. The positive control was established by adding 5 μl of enzyme and DMSO mixture into 10 μl of detection mix followed by addition of 5 μl of TK Substrate-biotin and ATP mixture (MAX inhibition=0% activity). To calculate the percent activity, Equation 1 was used. Ratio665/620 is the value at a given compound concentration: […]

The target in the next assay is T2, recombinant human TYRO3 (Homo sapiens, UniProt Q06418).
T2 construct: purchased Invitrogen
T2 sequence (Q06418 41-890): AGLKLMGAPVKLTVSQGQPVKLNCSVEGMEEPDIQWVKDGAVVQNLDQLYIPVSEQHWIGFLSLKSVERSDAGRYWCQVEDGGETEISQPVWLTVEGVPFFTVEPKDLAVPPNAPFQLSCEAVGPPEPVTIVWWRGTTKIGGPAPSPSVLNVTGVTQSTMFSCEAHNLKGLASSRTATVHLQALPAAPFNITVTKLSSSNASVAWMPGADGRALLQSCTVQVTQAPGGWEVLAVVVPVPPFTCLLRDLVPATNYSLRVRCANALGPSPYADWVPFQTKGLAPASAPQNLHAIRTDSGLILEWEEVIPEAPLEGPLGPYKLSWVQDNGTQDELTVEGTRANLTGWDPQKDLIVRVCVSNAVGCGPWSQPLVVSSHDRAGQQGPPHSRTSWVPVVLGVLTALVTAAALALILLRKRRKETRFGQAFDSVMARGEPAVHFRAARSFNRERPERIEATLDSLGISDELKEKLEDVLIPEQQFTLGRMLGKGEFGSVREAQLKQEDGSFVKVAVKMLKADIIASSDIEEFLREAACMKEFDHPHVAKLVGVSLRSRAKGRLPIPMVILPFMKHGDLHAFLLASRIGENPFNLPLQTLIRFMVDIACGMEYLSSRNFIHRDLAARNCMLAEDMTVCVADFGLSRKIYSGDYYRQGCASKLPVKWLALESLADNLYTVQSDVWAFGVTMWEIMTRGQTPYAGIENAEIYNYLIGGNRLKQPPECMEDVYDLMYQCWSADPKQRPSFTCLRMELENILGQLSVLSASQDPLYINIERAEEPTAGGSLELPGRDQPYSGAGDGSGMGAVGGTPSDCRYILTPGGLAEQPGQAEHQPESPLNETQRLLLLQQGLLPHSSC
Kind of assay: HTRF KinEASE-TK biochemical potency, TYRO3. As to conditions: 1 nM TYRO3, 700 μM ATP. As to the method: as §1
For orientation: Time-resolved FRET reads energy transfer from a long-lived donor to a nearby acceptor.

Molecules are shown by their SMILES. Where only a bound is given, the exact number is not on record here.

Turning to `CC1(O)CCCCc2cc(-c3n[nH]c4ncc(-c5ccc6c(c5)CCN(C5CCCC5)CC6)cc34)ccc21` (stereo not shown) [Example 27, 2-[5-(3-Cyclopentyl-2,3,4,5-tetrahydro-1H-3-benzazepin-7-yl)-1H-pyrazolo[3,4-b]pyridin-3-yl]-5-methyl-6,7,8,9-tetrahydro-5H-benzo[7]annulen-5-ol], the IC50 at Axl was < 100 nM; on recombinant human TYRO3, 100 to 1000 nM.

`C[C@@H]1CCCN1C1CCc2ccc(-c3cnc4[nH]nc(-c5ccc6c(c5)OCC5(CCC5)NC6=O)c4c3)cc2CC1` (stereo partly drawn) [Example 37, 8-(5-{7-[(2R)-2-Methylpyrrolidin-1-yl]-6,7,8,9-tetrahydro-5H-benzo[7]annulen-2-yl}-1H-pyrazolo[3,4-b]pyridin-3-yl)-4,5-dihydro-2H-spiro[1,4-benzoxazepine-3,1′-cyclobutan]-5-one]: the IC50 on Axl and at recombinant human TYRO3 was < 100 nM each time.

As to `CC1(C)NS(=O)(=O)c2cc(-c3n[nH]c4ncc(-c5ccc6c(c5)CCC(N5CCCC5)CC6)cc34)ccc21` (stereo not shown) [Example 32, 3,3-Dimethyl-6-{5-[7-(pyrrolidin-1-yl)-6,7,8,9-tetrahydro-5H-benzo[7]annulen-2-yl]-1H-pyrazolo[3,4-b]pyridin-3-yl}-2,3-dihydro-1λ^6,2-benzothiazole-1,1-dione], the IC50 against Axl and on recombinant human TYRO3 was < 100 nM throughout.

With `O=C1NCCOc2cc(-c3n[nH]c4ncc(-c5ccc6c(c5)CN(C5CCCC5)CC6)cc34)ccc21` [Example 10, 8-(5-(2-Cyclopentyl-1,2,3,4-tetrahydroisoquinolin-7-yl)-1H-pyrazolo[3,4-b]pyridin-3-yl)-3,4-dihydrobenzo[f][1,4]oxazepin-5(2H)-one], the IC50 on Axl and at recombinant human TYRO3 was < 100 nM in each case.

`C[C@H]1CCCN1C1(C)CCc2ccc(-c3cnc4[nH]nc(-c5ccc6c(c5)OCCNC6=O)c4c3)cc2CC1` (stereo partly drawn) [Example 24, 8-(5-{7-Methyl-7-[(2S)-2-methylpyrrolidin-1-yl]-6,7,8,9-tetrahydro-5H-benzo[7]annulen-2-yl}-1H-pyrazolo[3,4-b]pyridin-3-yl)-2,3,4,5-tetrahydro-1,4-benzoxazepin-5-one]: the half-inhibitory concentration (IC50) against Axl and at recombinant human TYRO3 was < 100 nM throughout.

Consider `C[C@@H]1CCCN1C1CCc2ccc(-c3cnc4[nH]nc(-c5ccc6c(c5)OCC5(CC5)NC6=O)c4c3)cc2CC1` (stereo partly drawn) [Example 36, 8-(5-{7-[(2R)-2-Methylpyrrolidin-1-yl]-6,7,8,9-tetrahydro-5H-benzo[7]annulen-2-yl}-1H-pyrazolo[3,4-b]pyridin-3-yl)-4,5-dihydro-2H-spiro[1,4-benzoxazepine-3,1′-cyclopropan]-5-one], for which the IC50 at Axl and on recombinant human TYRO3 was < 100 nM each time.

`O=C1NCCOc2cc(-c3n[nH]c4ncc(-c5ccc6c(c5)CCN(C5CCCC5)CC6)cc34)ccc21` [Example 7, 8-[5-(3-Cyclopentyl-2,3,4,5-tetrahydro-1H-3-benzazepin-7-yl)-1H-pyrazolo[3,4-b]pyridin-3-yl]-2,3,4,5-tetrahydro-1,4-benzoxazepin-5-one]: the IC50 at Axl and at recombinant human TYRO3 was < 100 nM each time.

As for `O=C1NCCOc2cc(-c3n[nH]c4ncc(-c5ccc6c(c5)CCN(C(=O)C5CC5)CC6)cc34)ccc21` [Example 17, 8-[5-(3-Cyclopropanecarbonyl-2,3,4,5-tetrahydro-1H-3-benzazepin-7-yl)-1H-pyrazolo[3,4-b]pyridin-3-yl]-2,3,4,5-tetrahydro-1,4-benzoxazepin-5-one], the IC50 on Axl and at recombinant human TYRO3 was < 100 nM in each case.

Consider `O=C1NCCOc2cc(-c3n[nH]c4ncc(-c5ccc6c(c5)CCC(N[C@@H]5CCOC5)C6)cc34)ccc21` (stereo partly drawn) [Example 5, 8-[5-(6-{[(3R)—Oxolan-3-yl]amino}-5,6,7,8-tetrahydronaphthalen-2-yl)-1H-pyrazolo[3,4-b]pyridin-3-yl]-2,3,4,5-tetrahydro-1,4-benzoxazepin-5-one], for which the IC50 against Axl and on recombinant human TYRO3 was < 100 nM in each case.

For the compound `CC1(O)CCCOc2cc(-c3n[nH]c4ncc(-c5ccc6c(c5)CCN(C5CCCC5)CC6)cc34)ccc21` (stereo not shown) [Example 28, (8-[5-(3-Cyclopentyl-2,3,4,5-tetrahydro-1H-3-benzazepin-7-yl)-1H-pyrazolo[3,4-b]pyridin-3-yl]-5-methyl-2,3,4,5-tetrahydro-1-benzoxepin-5-ol)], the IC50 was < 100 nM on Axl and 100 to 1000 nM on recombinant human TYRO3.

With `O=C1NCCOc2cc(-c3n[nH]c4ncc(-c5ccc6c(c5)CCC(N5CCOCC5)CC6)cc34)ccc21` (stereo not shown) [Example 47, 8-{5-[7-(Morpholin-4-yl)-6,7,8,9-tetrahydro-5H-benzo[7]annulen-2-yl]-1H-pyrazolo[3,4-b]pyridin-3-yl}-2,3,4,5-tetrahydro-1,4-benzoxazepin-5-one], the IC50 at Axl and on recombinant human TYRO3 was < 100 nM throughout.

Take `C[C@H]1CCCN1C1Cc2ccc(-c3cnc4[nH]nc(-c5ccc6c(c5)OCC(C)(C)NC6=O)c4c3)cc2C1` (stereo partly drawn) [Example 39, 3,3-Dimethyl-8-(5-{2-[(2S)-2-methylpyrrolidin-1-yl]-2,3-dihydro-1H-inden-5-yl}-1H-pyrazolo[3,4-b]pyridin-3-yl)-2,3,4,5-tetrahydro-1,4-benzoxazepin-5-one]: the IC50 on Axl and at recombinant human TYRO3 was < 100 nM in each case.

As for `C[C@@H]1CCCN1C1CCc2ccc(-c3cnc4[nH]nc(-c5ccc6c(c5)S(=O)(=O)NC6(C)C)c4c3)cc2CC1` (stereo partly drawn) [Example 33, 3,3-Dimethyl-6-(5-{7-[(2R)-2-methylpyrrolidin-1-yl]-6,7,8,9-tetrahydro-5H-benzo[7]annulen-2-yl}-1H-pyrazolo[3,4-b]pyridin-3-yl)-2,3-dihydro-1λ^6,2-benzothiazole-1,1-dione], the half-inhibitory concentration (IC50) against Axl and on recombinant human TYRO3 was < 100 nM throughout.

`Cc1cc2c(cc1-c1n[nH]c3ncc(-c4ccc5c(c4)CCC(N4CCC[C@H]4C)CC5)cc13)OCCNC2=O` (stereo partly drawn) [Example 40, 7-Methyl-8-(5-{7-[(2R)-2-methylpyrrolidin-1-yl]-6,7,8,9-tetrahydro-5H-benzo[7]annulen-2-yl}-1H-pyrazolo[3,4-b]pyridin-3-yl)-2,3,4,5-tetrahydro-1,4-benzoxazepin-5-one]: the IC50 at Axl and at recombinant human TYRO3 was < 100 nM each time.
